Data as given in patent US5545648A (Canadian Spinal Research Organization, priority 1992, dated 1996).
“And” between values parts separate entries of the source, which are not always exact repeats. Equal entries are not always repeated. “Also recorded” adds a separate entry of the source.

Tests used:
[1] = test system: spinal cord injured patients; test: Vibration sensation score; format: in vivo, human
Description: (§1) The schedule of each trial was the same. The patient was admitted to the hospital on the preceding day and in the early morning was assessed by neurological examination and electro-diagnostic evaluation. Administration of the drug or placebo, through an in dwelling venous catheter, was then begun and continued for approximately 2 hours, arranged in 20 minute sequences based on delivery of 1 ml aliquots of the 4-AP solution. The patient was monitored electroencephalographically at frequent intervals throughout the procedure. Samples of blood and urine were obtained from an additional intravenous catheter and from the urinary catheter respectively. Blood was obtained at intervals up to 5 hours from the beginning of drug delivery and urine obtained pre-infusion and at 1 and 2 hours after the beginning of infusion. The patients were re-evaluated by complete neurological examination, by the same examiner, at the end of the period of drug delivery. They were then re-examined with the electrodiagnostic tests. A more limited neurological examination was sometimes performed during drug delivery in an attempt to identify any early changes, without producing significant testing fatigue. The electrodiagnostic tests were repeated at 2 hours after the cessation of drug delivery. Patients showing apparent effects of the treatment remained in the hospital overnight and were examined on the following day. Subsequent contact with the patients was by telephone interview or as a result of their correspondence regarding longer term changes associated with their treatment.
(§2) Patients were evaluated using a modified form of the American Spinal Injury Association (ASIA) Standards for Neurological Classification of Spinal Injury Patients (revised 1990). The modifications were mainly required to simplify the examination so that it could be performed on patients lying on a bed with intravenous catheters, electrodes and urethral catheters restricting the range of motion. Examinations performed after the day of drug delivery were made on an outpatient basis with the subjects partially clothed, and evaluation of dermatomes was sometimes incomplete. Each part of the examination was videotaped for later review and was repeated on the two sides of the body.
(§3) Sensory abilities were graded on an analogous 0-4 point scale:
The sensory modalities tested were light touch, pinprick, vibration, joint position, and temperature. The dermatomes tested for touch and pinprick were: C5,6,7,8, T1,T7-9,L1,2,3,4,5, and S1, giving a total possible score of 96 for each modality. Vibration sensation was usually tested bilaterally, at the shoulder, elbow, knee and ankle. Temperature sensation was tested, with the subject's eyes closed, by blowing cool air from a distance or breathing warm air in close proximity on the dorsal surface of the hands and feet. Joint position sense was examined with the subject's eyes closed, by imposed flexion and extension movements of the thumb and great toe. The total possible score for the full sensory examination was 256 points.
Though the examiners assigned half point scores in cases where they felt that subjects fell between score categories, any half point differences between pre- and post-infusion scores have been ignored in this analysis. Also omitted from this tabulation are the scores for vibration sensation, which are shown separately in Table 3. […]

[2] = test system: spinal cord injured patients; test: Effects reported by the subjects and overall clinical benefit (function, chronic pain, spasticity); format: in vivo, human
Description: (§4) The experimental design was a double-blind, placebo-controlled, crossover study in which each patient was administered the drug and a vehicle control on different occasions, separated by two weeks. The order of delivery was randomized.
as §1
(§5) Two of the patients who reported more prolonged effects of the drug were returned to the hospital after 4 months for a second, unblinded trial, which included neurological examinations daily for 3-4 days. Plasma samples were also obtained daily from these two patients, for measurement of 4-AP.

[3] = test system: spinal cord injured patients; test: Neurological examination, motor and sensory score (modified ASIA standards), double-blind placebo-controlled crossover study; format: in vivo, human; design: key to change in sensory score, -ve / change in sensory score, +ve / change in sensory score, -ve, TOTAL: change in summed sensory points (each item graded 0-4)
Description: as §4, §1, §5, §2
Grading of motor abilities was made on the ASIA 0-5 point scale wherever possible:
0--absent (total paralysis)
1--trace (palpable or visible contraction producing little or no movement around joint)
2--poor (active movement through much or all of the normal range of motion, with gravity eliminated--where relevant)
3--fair (active movement through full range of motion against gravity)
4--good (active movement against resistance)
The muscles examined included: deltoid, biceps, triceps, wrist extensors, wrist flexors, finger flexors and extensors (combined), hip flexors (iliopsoas), hip extensors, quadriceps, hamstrings, ankle dorsiflexors (tibiails anterior) and plantarflexors (gastrocnemius, soleus), and toe extensors (extensor hallucis longus). The total possible score for the full motor examination was 130.
as §3
0--absent (no ability to detect the stimulus)
1--trace (patchy or variable ability to detect stimulus with little or no resolution of quality)
2--light (able to detect stimulus but much weaker, or of altered quality relative to equivalent unaffected areas) […]

[4] = test system: synaptic transmission in the spinal cord; settings: relatively high concentrations; cited from earlier work
[5] = 2 hours after infusion of 4-AP, total of subjects
[6] = 2 hours after infusion of 4-AP, total possible 32, one line per subject: b182 RB, SC, HT, LJ, EB, b187 GCh, AW, b189 GCu
[7] = 2 hours after infusion of 4-AP, total of 8 subjects
[8] = 2 hours after infusion of 4-AP, total of 8 subjects, without vibration
[9] = 2 hours after infusion of 4-AP, total possible 130, one line per subject: b160 RB, b161 SC, HT, LJ, EB, GCh, AW, GCu
[10] = 2 hours after infusion of 4-AP, total possible 224, without vibration, one line per subject: b160 RB, b161 SC, HT, LJ, EB, GCh, AW, GCu

Structure (SMILES): Nc1ccncc1 [4-AP, 4-aminopyridine]
- change in total score for vibration sensation, +ve, TOTAL [1, 5]: +1
- change in total score for vibration sensation, -ve, TOTAL [1, 5]: -12
- change in total score for vibration sensation, +ve [1, 6]: 0 and +1
- change in total score for vibration sensation, -ve [1, 6]: 0 and -7 and -4 and -2
- vibration sensation score (in words) ([1]; after 4-AP infusion, three subjects): scores in three subjects decreased substantially
- reproduction of effects at second administration ([2]; 4 months later, two subjects GCh, EB): effects and side effects similar to those seen in the earlier, blinded administration; also recorded: the effects were reproduced by a second administration of the drug 4 months later in two of the subjects
- return to usual state ([2]; after infusion, subject gamma): ≤ 3 days
- increase in strength of arms and right leg, reported by subject ([2]; day after infusion, subject beta): about 25%
- delayed or prolonged effects reported ([2]; five patients with less complete injuries): all reported some delayed or prolonged effects
- duration of self-sustaining changes in the nervous system ([2]; human, in vivo): 1 to 2 days
- patients desiring to receive the drug regularly ([2]; human, in vivo): four of the patients expressed a strong desire to be able to receive the drug on a regular basis
- reduced usage of analgesic ([2]; human, in vivo): greatly reduced usage of analgesic in one case
- reduced usage of antispastic medication ([2]; human, in vivo): antispastic medication in at least two cases
- relation between side-effects and apparent benefit ([2]; human, in vivo): no relation between the appearance of side-effects and apparent benefit
- motor and/or sensory effects in incomplete injuries ([2]; remaining 5 subjects): showed motor and/or sensory effects
- duration of markedly reduced spasticity ([2]; second infusion, subject gamma): more than 24 hours
- duration of improved function ([2]; some subjects): over 48 hours
- reduction of chronic pain and spasticity, motor control and sensory ability (overall) ([2]; spinal cord injured individuals): relief of chronic pain and spasticity; also recorded: can increase motor control and sensory ability and reduce chronic pain and spasticity; also recorded: long lasting reductions in spasticity and in chronic pain and dysesthesias; also recorded: shown to reduce chronic pain and spasticity in certain individuals
- proportion of patients with incomplete injury showing benefit ([2]; spinal cord injury patients): 5 of 6 and 5 of the 6
- duration of reduction in spasticity ([2]; subject four): three days
- dysesthesia (persistent itch in one shoulder) ([2]; subject four): no change in this condition
- return to normal requirement for Baclofen ([2]; subject four): only returned to their normal requirement for Baclofen on the fourth day
- finger movements back and forth, left hand ([2]; subject four, normally a few flickers): 20-30 times
- duration of absence of pain in the legs ([2]; subject gamma): at least 2 days
- sensation, reported by subject ([2]; subject named in the block (LJ; EB; GCh; AW)): more sensation below the level of injury; also recorded: remarkable return of sensation below the level of the injury to virtually normal sensation on both sides; also recorded: marked improvement in sensation below the lesion; also recorded: increased sensation; also recorded: more sensation and strength in their legs
- chronic pain / paresthesia, reported by subject ([2]; subject named in the block (LJ; GCh; GCu)): The usual burning pain they experienced in their buttocks was absent, though there was still some burning in their lower limbs, which had increased; also recorded: the pain in the legs was absent, though it remained to some extent in their feet; also recorded: reduction of chronic pain; also recorded: significant reduction in the usual tingling paresthesia in their hands
- movement / motor power, reported by subject ([2]; subject named in the block (b79 LJ; b81 EB; b83, b84 GCh; b86 AW; b88 GCu)): slightly greater movement in one thumb and index finger; also recorded: increased motor power in the left arm and leg; also recorded: greater endurance; also recorded: motor endurance below the level of the injury; also recorded: improved strength and sensation in their legs; also recorded: their arms and right leg had been stronger
- spasticity ([2]; subject named in the block (b81 EB; b83, b84 GCh)): marked reduction in spasticity; also recorded: decrease in spasticity
- breathing ([2]; subject two): marked improvement in breathing
- duration of motor and sensory effects incl. improved breathing ([2]; subject two): about 2 days
- infused dose at which lower limb strength increased ([2]; subject two): 8 mg
- relief of chronic, painful dysesthesias below the lesion ([2]; subjects, predominantly proximal in the limb): considerable relief
- beneficial effects in neurologically complete lesions ([2]; two patients): Two patients with neurologically "complete" spinal cord lesions showed no beneficial effects
- change in motor score, +ve, TOTAL [3, 7]: +26
- change in motor score, -ve, TOTAL [3, 7]: 0
- change in sensory score, +ve, TOTAL [3, 8]: +66
- change in sensory score, -ve, TOTAL [3, 8]: -7
- change in motor score, +ve [3, 9]: 0 and +4 and +16 and +2
- change in motor score, -ve [3, 9]: 0
- change in sensory score, +ve [3, 10]: 0 and +3 and +2 and +14 and +27 and +20
- change in sensory score, -ve [3, 10]: 0 and -5 and -2
- initial pinprick response in most distal dermatomes ([3]; 2 hours after infusion, second trial): initial depression of response in the most distal dermatomes
- pinprick sensation and joint position sense below the lesion ([3]; 24 hours, not seen at 2 hours, subject three): striking improvement of pinprick sensation and joint position sense below the lesion
- persistence of motor score increase ([3]; 24 hours, second trial, subject four): increases in score were sustained at 24 hours after infusion
- persistence of pinprick improvement ([3]; 48 hours post infusion, second trial, EB and GCh): still detectable at 48 hour post infusion in both cases
- reversal of sensory effect ([3]; 72 hours, subject GCh, second trial): returned completely to pre-infusion status; also recorded: entirely reversed by 72 hours
- time of maximal motor improvement ([3]; after infusion, second trial, subject four (FIG. 5)): 2 h
- time of maximal improvement in sensory (pinprick) score ([3]; after infusion, second trial, subjects): 24 h
- motor performance, greater endurance / reversal of leg muscle rigidity effects ([3]; second administration, leg muscles, hip and knee): reduction in the spasticity of leg muscles led at times to a reduction of motor power
- pinprick sensation below level of injury ([3]; second, unblinded administration, EB and GCh): remarkable increase in the response to pinprick stimulation below the level of injury
- synaptic transmission in the spinal cord [4]: enhance synaptic transmission in the spinal cord
